A short description of this data set: Absorption spectrum measured in solution.
The mark [1] stands for this setting: molar extinction coefficient at λmax, solvent as given for λmax.

Read-outs that look alike come from different tables or passages of the source. Marks after values point to notes of the source that are not given here.

`CCN(CC)c1ccc(N=Nc2nc(C#N)c(C#N)n2C)c([N-]S(=O)(=O)N(C)C)c1.CCN(CC)c1ccc(N=Nc2nc(C#N)c(C#N)n2C)c([N-]S(=O)(=O)N(C)C)c1.[Co+2]` [Example 16] yielded a ε of 94990 L/mol/cm, a λ1/2-λ1/10 of 33 nm and a λmax of 543 nm.

On to `CCN(CC)c1ccc(N=Nc2nc(C#N)c(C#N)[nH]2)c([N-]P(=O)(OCC(F)(F)C(F)F)OCC(F)(F)C(F)F)c1.CCN(CC)c1ccc(N=Nc2nc(C#N)c(C#N)[nH]2)c([N-]P(=O)(OCC(F)(F)C(F)F)OCC(F)(F)C(F)F)c1.[Ni+2]` [Example 5], for which the ε turned out to be 70893 L/mol/cm, the λ1/2-λ1/10 is 21 nm and the λmax was 510^4) nm.

The molecule `CCN(CC)c1cc([N]([Ni][N](c2cc(N(CC)CC)c(OC)cc2N=Nc2nc(-c3ccccc3)ns2)S(=O)(=O)N(C)C)S(=O)(=O)N(C)C)c(N=Nc2nc(-c3ccccc3)ns2)cc1OC` [Example 35] displayed a λmax of 544 nm.

`CCN(CC)c1ccc(N=Nc2nnc(C)s2)c([N]([Ni][N](c2cc(N(CC)CC)ccc2N=Nc2nnc(C)s2)S(=O)(=O)N(C)C)S(=O)(=O)N(C)C)c1` [Example 29] came in with a λmax (in methylene chloride) of 554 nm. Under setting [1], this molecule showed a ε of 84070 L/mol/cm. The same molecule showed a λ1/2-λ1/10 (on the long wavelength flank) of 26 nm.

As for `CCN(CC)c1ccc(N=Nc2nc(-c3ccccc3)ns2)c([N]([Ni][N](c2cc(N(CC)CC)ccc2N=Nc2nc(-c3ccccc3)ns2)S(=O)(=O)NCC(F)(F)C(F)F)S(=O)(=O)NCC(F)(F)C(F)F)c1` [Example 31], the λmax (in methylene chloride) was 556 nm.

Consider `CCN(CC)c1cc([N]([Co][N](c2cc(N(CC)CC)c(C)cc2N=Nc2nc(-c3ccccc3)ns2)S(=O)(=O)N(C)C)S(=O)(=O)N(C)C)c(N=Nc2nc(-c3ccccc3)ns2)cc1C` [Example 38], for which the λmax was 554^5) nm.

For the molecule `CCN(CC)c1ccc(N=Nc2nc(-c3ccccc3)ns2)c([N-]S(=O)(=O)N(C)C)c1.CCN(CC)c1ccc(N=Nc2nc(-c3ccccc3)ns2)c([N-]S(=O)(=O)N(C)C)c1.[Co+2]` [Example 12], the ε was 92750 L/mol/cm, the λ1/2-λ1/10 was 32 nm and the λmax was found to be 551 nm.

`CCN(CC)c1ccc(N=Nc2nc(C#N)c(C#N)n2C)c([N-]S(=O)(=O)N(C)C)c1.CCN(CC)c1ccc(N=Nc2nc(C#N)c(C#N)n2C)c([N-]S(=O)(=O)N(C)C)c1.[Ni+2]` [Example 15]: the ε came to 107238 L/mol/cm, the λ1/2-λ1/10 is 21 nm and the λmax was 540 nm.

As for `CCN(CC)c1ccc(N=Nc2nc(C#N)c(C#N)n2C)c([N-]P(=O)(OCC(F)(F)C(F)F)OCC(F)(F)C(F)F)c1.CCN(CC)c1ccc(N=Nc2nc(C#N)c(C#N)n2C)c([N-]P(=O)(OCC(F)(F)C(F)F)OCC(F)(F)C(F)F)c1.[Cu+2]` [Example 4], the ε was 88071 L/mol/cm, the λ1/2-λ1/10 is 29 nm and the λmax is 533^5) nm.

Take `CCN(CC)c1ccc(N=Nc2nc(C#N)c(C#N)n2C)c([N-]P(=O)(OCC(F)(F)C(F)F)OCC(F)(F)C(F)F)c1.CCN(CC)c1ccc(N=Nc2nc(C#N)c(C#N)n2C)c([N-]P(=O)(OCC(F)(F)C(F)F)OCC(F)(F)C(F)F)c1.[Co+2]` [Example 3]: the ε was 92203 L/mol/cm, the λ1/2-λ1/10 came out at 33 nm and the λmax was 538^5) nm.

Take `CCN(CC)c1ccc(N=Nc2nnc(C)s2)c([N]([Co][N](c2cc(N(CC)CC)ccc2N=Nc2nnc(C)s2)S(=O)(=O)N(C)C)S(=O)(=O)N(C)C)c1` [Example 30]: for the setting “in methylene chloride”, the λmax worked out at 554 nm.

As for `CCN(CC)c1cc([N]([Ni][N](c2cc(N(CC)CC)c(C)cc2N=Nc2nc(-c3ccccc3)ns2)S(=O)(=O)N(C)C)S(=O)(=O)N(C)C)c(N=Nc2nc(-c3ccccc3)ns2)cc1C` [Example 36], the λmax is listed as 552^5) nm.

Under setting [1], `CCCNS(=O)(=O)[N-]c1cc(N(CC)CC)ccc1N=Nc1nc(C#N)c(C#N)[nH]1.CCCNS(=O)(=O)[N-]c1cc(N(CC)CC)ccc1N=Nc1nc(C#N)c(C#N)[nH]1.[Ni+2]` [Example 6] had a ε of 34523 L/mol/cm. For the setting “on the long wavelength flank”, this molecule gave a λ1/2-λ1/10 of 21 nm.

`CCN(CC)c1ccc(N=Nc2nc(-c3ccccc3)ns2)c([N]([Ni][N](c2cc(N(CC)CC)ccc2N=Nc2nc(-c3ccccc3)ns2)P(=O)(OC)c2ccccc2)P(=O)(OC)c2ccccc2)c1` (centres unmarked) [Example 23]: the ε turned out to be 90126 L/mol/cm, the λ1/2-λ1/10 worked out at 61 nm and the λmax is reported as 538^5) nm.

For the molecule `CCN(CC)c1ccc(N=Nc2nc(C#N)c(C#N)[nH]2)c([N-]S(=O)(=O)N(C)C)c1.CCN(CC)c1ccc(N=Nc2nc(C#N)c(C#N)[nH]2)c([N-]S(=O)(=O)N(C)C)c1.[Ni+2]` [Example 18], the λmax (in methanol) is 518^4) nm. In addition, under setting [1], the ε came out at 92143 L/mol/cm. This molecule gave a λ1/2-λ1/10 (on the long wavelength flank) of 21 nm.

On to `CCN(CC)c1ccc(N=Nc2nc(C#N)c(C#N)n2C)c([N-]S(=O)(=O)N(C)C)c1.CCN(CC)c1ccc(N=Nc2nc(C#N)c(C#N)n2C)c([N-]S(=O)(=O)N(C)C)c1.[Zn+2]` [Example 17], for which the ε turned out to be 111931 L/mol/cm and the λ1/2-λ1/10 was 12 nm.

Molecule `CCN(CC)c1ccc(N=Nc2nc(-c3ccccc3)ns2)c([N-]S(=O)(=O)N(C)C)c1.CCN(CC)c1ccc(N=Nc2nc(-c3ccccc3)ns2)c([N-]S(=O)(=O)N(C)C)c1.[Ni+2]` [Example 11] came in with a ε of 86514 L/mol/cm and a λmax of 530 nm.
